For four compounds, melting point results are on record in patent US7053078B2, “Serine protease inhibitors” (Eli Lilly and Company, priority 2000, dated 2006).

The compound `COc1ccc(C(=O)N[C@@H](CNC(=O)C2CCN(C3CCN(C)CC3)CC2)c2ccccc2)cc1` yielded a melting point of 252 to 259 °C.

For the compound `COc1ccc(C(=O)N[C@@H](CNC(=O)C2CCN(C3CCCC3)CC2)c2ccccc2)cc1`, the melting point lay in the range of 253 to 257 °C.

Take `CCN1CCC(C(=O)NC[C@H](NC(=O)c2ccc(OC)cc2)c2ccccc2)CC1`: the melting point lay in the range of 245 to 251 °C.

`COc1ccc(C(=O)N[C@@H](CNC(=O)C2CCN(C3CCCCC3)CC2)c2ccccc2)cc1` had a melting point of 239 to 243 °C.
